According to US5475000A, “3-(substituted tetrazolyl)-4-oxo-4H-pyrido-[1,2-a]pyrimidines, salts thereof, pharmaceutical compositions containing them and process for preparing same” (Chinoin Gyogyszer-es Vegyeszeti Termekek Gyara Rt., priority 1991, dated 1995):
Counter-ions that a name gives are not always drawn.

Experiments:
[1] = system: gastric mucosa lesion induced by 96% ethanol containing hydrochloric acid; assay: Protective action against the gastric mucosa lesion induced by 96% ethanol containing hydrochloric acid (acid-ethanol gastric ulcer), p.o.; format: in vivo; conditions: Rattus norvegicus, po, rats, 0.5 ml of 1:0.02 mixture of 96% ethanol and hydrochloric acid, read-out: ID50 p.o. mg/kg, gastric mucosa lesion induced by 96% ethanol containing hydrochloric acid
Method: As an example, the protective action of the compounds according to the invention against gastric ulcer induced by 0.5 ml of a 1:0.02 volume ratio mixture of 96% ethanol and hydrochloric acid is illustrated in Table 1. [for the method, see: Gastroenterology 77, 433 (1979)]
Protective action in rats of the compounds according to the
invention against the gastric mucosa lesion induced by 96%
ethanol containing hydrochloric acid

[2] = system: indomethacin-induced gastric mucosa lesion; assay: Inhibition of the indomethacin-induced gastric mucosa lesion, p.o.; format: in vivo; conditions: Rattus norvegicus, po, rats, read-out: ID50 p.o. mg/kg, indomethacin-induced gastric mucosa lesion
Text: The effect of the compounds to the invention, given as examples, against the indomethacin-induced ulcer [Arch. Int.
Inhibition of the indomethacin-induced gastric mucosa

[3] = system: indomethacin-induced duodenal ulcer; assay: Indomethacin-induced duodenal/small intestine ulcer formation (method of Tsuromi), with lethality caused by indomethacin; format: in vivo, rat; conditions: 50 mg/kg on 4 consecutive days, 15 mg/kg oral indomethacin on 2nd day, vs control
Method: According to the method of Tsuromi (J. Pharm. Dyn. 1980, 3, 659) the compound was administered to the rats in a dose of 50 mg/kg on 4 consecutive days. On the 2nd day a 15 mg/kg oral dose of indomethacin was given to the rats. The ulcer formation was determined in the small intestine on the 3rd day following the administration of the indomethacin. In comparison to the control, the compound according to the invention exerted an inhibition of 20% on the ulcer formation and also an inhibition of 100% on the lethality caused by indomethacin.

[4] = system: gastrointestinal ulceration induced by indomethacin; assay: Gastrointestinal ulceration induced by indomethacin (known compound); format: in vivo

Structure (SMILES)	ED50 [1] [mg/kg]	ED50 [2] [mg/kg]	inhibition on the ulcer formation in the small intestine ([3]; determined on 3rd day following indomethacin) [%]	inhibition on the lethality caused by indomethacin [3] [%]	prevention of the gastrointestinal ulceration induced by indomethacin [4]
Cc1cccn2c(=O)c(-c3nnnn3C(C)C)cnc12 [3-(1-isopropyl-1H-tetrazol-5-yl)-9-methyl-4-oxo-4H-pyrido[1,2-a]pyrimidine]	0.34	–	–	–	–
C=CCn1nnc(-c2cnc3c(C)cccn3c2=O)n1 [3-(2-allyl-2H-tetrazol-5-yl)-9-methyl-4-oxo-4H-pyrido[1,2-a]pyrimidine]	2.9	2.5	–	–	–
CCCCn1nnc(-c2cnc3c(C)cccn3c2=O)n1 [3-(2-butyl-2H-tetrazol-5-yl)-9-methyl-4-oxo-4H-pyrido[1,2-a]pyrimidine]	2	–	–	–	–
CC(C)n1nnc(-c2cnc3ccccn3c2=O)n1 [3-(2-isopropyl-2H-tetrazol-5-yl)-4-oxo-4H-pyrido[1,2-a]pyrimidine]	2.2	4	–	–	–
Cc1cccn2c(=O)c(-c3nnn(C(C)C)n3)cnc12 [3-(2-isopropyl-2H-tetrazol-5-yl)-9-methyl-4-oxo-4H-pyrido[1,2-a]pyrimidine]	0.23	2.6	–	–	–
CCCn1nnc(-c2cnc3c(C)cccn3c2=O)n1 [3-(2-propyl-2H-tetrazol-5-yl)-9-methyl-4-oxo-4H-pyrido[1,2-a]pyrimidine]	0.05	5.5	20	100	–
Cc1cccn2c(=O)c(-c3nn[nH]n3)cnc12 [9-methyl-3-(5-tetrazolyl)-4-oxo-4-H-pyrido[1,2-a]pyrimidine potassium salt]	–	–	–	–	did not prevent
